From patent publication US10245267B2, “Biaryl amide compounds as kinase inhibitors” (NOVARTIS AG, priority 2013, dated 2019) come the findings set out here.

One experiment concerns the target b-Raf(V600E) (Homo sapiens (Human), UniProt P15056, V600E). As to conditions: read-out: b-Raf IC-50; Table 2; Alpha Screen, ATP 10 μM, 3 hours reaction.
The target of experiment [1] is C-Raf FL (full-length C-Raf protein) (Homo sapiens (Human), UniProt P04049, Y340E/Y341E). It counts as biochemical. The note with it: read-out: c-Raf FL IC-50.
Setting [2] is: Table 2, Alpha Screen, ATP 1 uM, 1 hour reaction.

Structures are written as SMILES. pIC50: −log10 of the molar value. Where two headings read alike, the source gives them in different places.

Sequence of b-Raf(V600E) (P15056 whole entry V600E): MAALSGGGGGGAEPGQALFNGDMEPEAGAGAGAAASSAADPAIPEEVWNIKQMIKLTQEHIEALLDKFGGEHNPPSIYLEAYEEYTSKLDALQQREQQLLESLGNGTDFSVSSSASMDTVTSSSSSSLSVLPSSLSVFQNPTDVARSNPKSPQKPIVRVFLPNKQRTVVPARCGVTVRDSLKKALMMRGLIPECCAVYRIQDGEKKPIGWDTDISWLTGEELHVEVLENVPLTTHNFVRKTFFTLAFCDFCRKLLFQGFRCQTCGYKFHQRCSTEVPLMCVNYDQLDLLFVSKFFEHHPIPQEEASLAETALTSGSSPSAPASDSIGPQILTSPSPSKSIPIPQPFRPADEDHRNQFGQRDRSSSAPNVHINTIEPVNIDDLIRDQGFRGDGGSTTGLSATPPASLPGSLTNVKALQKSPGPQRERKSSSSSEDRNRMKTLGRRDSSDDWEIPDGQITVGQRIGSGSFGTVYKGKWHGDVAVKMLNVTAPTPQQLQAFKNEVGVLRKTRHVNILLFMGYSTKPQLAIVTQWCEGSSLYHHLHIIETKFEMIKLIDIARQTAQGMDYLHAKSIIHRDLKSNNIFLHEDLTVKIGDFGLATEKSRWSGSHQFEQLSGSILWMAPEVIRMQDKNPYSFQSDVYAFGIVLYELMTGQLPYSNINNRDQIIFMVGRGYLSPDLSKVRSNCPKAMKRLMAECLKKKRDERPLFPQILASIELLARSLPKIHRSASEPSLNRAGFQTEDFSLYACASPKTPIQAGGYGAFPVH
Sequence of C-Raf FL (full-length C-Raf protein) (P04049 whole entry Y340E/Y341E): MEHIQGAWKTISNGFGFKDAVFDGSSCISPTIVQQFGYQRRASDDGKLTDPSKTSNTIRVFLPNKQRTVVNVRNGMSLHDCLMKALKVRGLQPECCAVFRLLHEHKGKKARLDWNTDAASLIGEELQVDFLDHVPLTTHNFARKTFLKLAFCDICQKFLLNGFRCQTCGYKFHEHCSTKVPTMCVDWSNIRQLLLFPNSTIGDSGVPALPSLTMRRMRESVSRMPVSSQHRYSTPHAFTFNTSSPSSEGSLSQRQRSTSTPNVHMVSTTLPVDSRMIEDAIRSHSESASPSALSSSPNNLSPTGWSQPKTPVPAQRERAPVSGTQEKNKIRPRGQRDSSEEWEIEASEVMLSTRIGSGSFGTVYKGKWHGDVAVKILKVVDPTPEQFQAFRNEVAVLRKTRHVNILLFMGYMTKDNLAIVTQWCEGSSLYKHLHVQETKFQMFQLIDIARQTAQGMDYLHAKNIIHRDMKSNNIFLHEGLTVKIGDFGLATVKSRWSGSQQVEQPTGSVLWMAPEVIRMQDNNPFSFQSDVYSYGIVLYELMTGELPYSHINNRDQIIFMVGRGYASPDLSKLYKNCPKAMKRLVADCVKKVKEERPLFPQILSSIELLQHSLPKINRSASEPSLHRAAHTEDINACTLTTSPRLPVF
Sequence of C-Raf FL (full-length C-Raf protein) (P63104 whole entry partner): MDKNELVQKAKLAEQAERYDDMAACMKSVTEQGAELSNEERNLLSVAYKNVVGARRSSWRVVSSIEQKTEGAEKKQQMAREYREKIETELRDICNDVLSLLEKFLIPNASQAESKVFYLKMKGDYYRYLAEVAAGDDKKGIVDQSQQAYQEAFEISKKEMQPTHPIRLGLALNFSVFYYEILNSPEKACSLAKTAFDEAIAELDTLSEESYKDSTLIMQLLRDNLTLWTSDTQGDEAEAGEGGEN

Consider `Cc1ccc(NC(=O)c2cccc(C(F)(F)F)c2)cc1-c1cc(N2CCOCC2)c(OCCO)nn1` [Example 590, N-(3-(6-(2-hydroxyethoxy)-5-morpholinopyridazin-3-yl)-4-methylphenyl)-3-(trifluoromethyl)benzamide], for which the pIC50 was 9.05 at b-Raf(V600E) and 9.70 in experiment [1] (setting [2]).
For `CCNc1nc(-c2cc(C(=O)Nc3cccc(C(F)(F)F)c3)ccc2C)cc(N2CCOCC2)n1` [Example 710, 3-(2-(ethylamino)-6-morpholinopyrimidin-4-yl)-4-methyl-N-(3-(trifluoromethyl)phenyl) benzamide] the same measures were 8.40 and 8.80.
Turning to `CCNc1nc(-c2cc(NC(=O)c3ccnc(C(F)(F)F)c3)ccc2C)cc(N2CCOCC2)n1` [Example 719, N-(3-(2-(ethylamino)-6-morpholinopyrimidin-4-yl)-4-methylphenyl)-2-(trifluoromethyl) isonicotinamide], the pIC50 on b-Raf(V600E) was 8.70.
Take `Cc1ncc(NC(=O)c2cccc(C(F)(F)F)c2)cc1-c1cc(N2CCOCC2)nc(NC[C@@H](C)O)n1` [Example 743, (R)—N-(5-(2-((2-hydroxypropyl)amino)-6-morpholinopyrimidin-4-yl)-6-methylpyridin-3-yl)-3-(trifluoromethyl) benzamide]: the pIC50 in experiment [1] is 9.10.
